Values quoted from earlier work in patent US9289440B2, “Intravenous formulation with water-soluble cocrystals of acetylsalicylic acid and theanine” (THEAPRIN PHARMACEUTICALS INC., priority 2009, dated 2016).
“Also recorded” adds a separate entry of the source.

Conditions: FDA Reports 2006-2008, single patient reports

Question: For `CC(=O)Oc1ccccc1C(=O)O` [Aspegic, lysine acetylsalicylate], which “side effect after drug was administered” value is on record?
Answer: cardio-respiratory arrest and ventricular fibrillation and died; also recorded: angina pectoris and recovered
